Literature values, collected in US9683982B2, “Method for diagnosis and/or prognosis of cancers by analysis of the mechanical properties of tumor cells” (Universität Leipzig, priority 2010, dated 2017).

System: cells of the cell line MCF7
Details: addition of 100 nmol/l TPA for 18 h in culture

## CCCCCCCCCCCCCC(=O)O[C@@H]1[C@@H](C)[C@@]2(O)[C@@H](C=C(CO)C[C@]3(O)C(=O)C(C)=C[C@@H]23)[C@@H]2C(C)(C)[C@]12OC(C)=O [TPA, 12-O-tetradecanoylphorbol-13-acetate]
  invasive potential and metastasis-forming potential: significant increase
